Results reported in paper PMC3131678 (Interdisciplinary Toxicology, 2011).
Where two headings read alike, the source gives them in different places.

Tests used:
CYP1A2 [1] = target: T1, CYP1A2 (Sus scrofa, UniProt F1SJ26); experiment: Inhibition of 7-methoxyresorufin O-demethylase (MROD) activity in porcine hepatic microsomes
T1 sequence (F1SJ26 1-516): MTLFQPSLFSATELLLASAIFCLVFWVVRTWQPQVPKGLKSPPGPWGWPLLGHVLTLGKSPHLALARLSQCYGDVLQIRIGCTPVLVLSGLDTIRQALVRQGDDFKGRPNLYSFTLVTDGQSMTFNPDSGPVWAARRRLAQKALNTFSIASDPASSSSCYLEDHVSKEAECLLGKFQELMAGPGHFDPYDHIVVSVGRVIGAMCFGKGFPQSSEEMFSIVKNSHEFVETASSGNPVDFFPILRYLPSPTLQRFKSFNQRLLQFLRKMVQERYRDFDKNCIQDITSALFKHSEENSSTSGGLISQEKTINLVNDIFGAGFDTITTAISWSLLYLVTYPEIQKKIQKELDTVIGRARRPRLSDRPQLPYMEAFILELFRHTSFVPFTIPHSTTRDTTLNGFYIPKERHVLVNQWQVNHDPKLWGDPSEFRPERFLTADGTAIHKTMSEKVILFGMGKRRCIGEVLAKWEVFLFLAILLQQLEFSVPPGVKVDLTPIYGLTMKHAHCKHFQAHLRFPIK
Method: (§1) All procedures were done on ice.
(§2) All steroids were dissolved in methanol. […] Kinetic studies were performed under linear conditions.
(§3) The activities were measured in pooled microsomes, thus taking into consideration between-individual variations in enzyme activities and potential response to the presence of steroids.

CYP1A1 [2] = experiment: Inhibition of 7-ethoxyresorufin O-deethylase (EROD) activity in porcine hepatic microsomes
Method: as §1, §2, §3

CYP2E1 [3] = target: T2, CYP2E1 (Sus scrofa, UniProt P79383); experiment: Inhibition of p-nitrophenol hydroxylase (PNPH) activity in porcine hepatic microsomes
Method: as §1, §2, §3

CYP1A2 [4] = target: T1, CYP1A2
Method: as §1, §2

CYP1A1 [5] = experiment: Enzyme kinetic analysis of EROD (resorufin formation from 7-ethoxyresorufin) in porcine hepatic microsomes; format: in vitro ADME; conditions: CI 95% confidence interval
Method: as §1, §2
V=(Vmax1*S)/(Km1+S)+(V max2*S)/(Km2+S),
where Km1 and Km2 are Michaelis constants for the high- and low-affinity components, respectively, and Vmax1 and Vmax2 are the maximum reaction velocities for the high- and low-affinity components, respectively.

CYP2E1 [6] = target: T2, CYP2E1; conditions: cited from earlier work
CYP1A1 [7] = test system: CYP1A1; set-up: method as in Zamaratskaia et al., [2009]; conditions: 1.8 to 72 pmol/ml; microsomes from entire and castrated male pigs; ref Zamaratskaia et al., [2009]; cited from earlier work
[8] = 100 µM steroid, pooled microsomes from three entire male pigs, altered = differs from control by at least 30%
[9] = lower concentrations (0.02 and 1.0 µM), pooled microsomes from entire male pigs
[10] = all concentrations tested (up to 100.0 µM), microsomes from mature male pigs
[11] = steroid 0.55, 1.0 and 100.0 µM, pooled microsomes from entire male pigs

T2 sequence (P79383 whole entry): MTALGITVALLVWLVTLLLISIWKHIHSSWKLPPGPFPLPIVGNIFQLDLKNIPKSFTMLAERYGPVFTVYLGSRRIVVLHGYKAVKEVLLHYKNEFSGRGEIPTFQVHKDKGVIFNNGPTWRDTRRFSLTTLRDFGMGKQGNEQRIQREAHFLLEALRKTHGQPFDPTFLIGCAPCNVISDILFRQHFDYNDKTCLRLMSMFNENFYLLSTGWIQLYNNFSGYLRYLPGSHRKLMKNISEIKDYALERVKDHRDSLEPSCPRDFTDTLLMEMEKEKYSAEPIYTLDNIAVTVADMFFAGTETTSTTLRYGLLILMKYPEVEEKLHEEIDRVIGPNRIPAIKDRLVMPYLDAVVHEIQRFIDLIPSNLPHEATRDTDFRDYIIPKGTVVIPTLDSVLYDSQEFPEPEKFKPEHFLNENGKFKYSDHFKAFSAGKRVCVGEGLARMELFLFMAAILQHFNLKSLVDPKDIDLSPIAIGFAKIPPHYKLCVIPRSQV

SMILES	Inhibition of MROD activity (CYP1A2 [1]; [8])	Inhibition of MROD activity (CYP1A2 [1]; [9])	Inhibition of EROD activity (CYP1A1 [2]; [8])	Inhibition of EROD activity (CYP1A1 [2]; [9])	Inhibition of PNPH activity (CYP2E1 [3]; [10])	Inhibition of EROD activity (CYP1A1 [2]; [11])	other results
C[C@]12CC[C@@H]3c4ccc(O)cc4CC[C@H]3[C@@H]1CC[C@H]2O [17α-estradiol]	inhibited	no inhibitory effect	inhibited	no inhibitory effect	inhibited only by 100 µM of 17β-estradiol		
COc1ccc2nc3ccc(=O)cc-3oc2c1 [7-methoxy-resorufin, 7-methoxyresorufin]							Km (CYP1A2 [4]): 0.13 µM
CCOc1ccc2nc3ccc(=O)cc-3oc2c1 [7-ethoxyresorufin]							Km (CYP1A1 [5]; high affinity component): 0.01 µM; Km (CYP1A1 [5]; low affinity component): 1.7 µM; Vmax, pmol/min/mg (CI) (CYP1A1 [5]; low affinity component): 15.2 (9.64–20.71) pmol/min/mg
C[C@]12CC[C@@H]3c4ccc(O)cc4CC[C@H]3[C@@H]1CC[C@@H]2O [17β-estradiol]	inhibited	no inhibitory effect	inhibited	no inhibitory effect			Type of inhibition of PNPH (CYP2E1 [6]; microsomes from prepubertal male pigs, ref Zamaratskaia et al. ([2007])): mixed inhibitor; Inhibition of PNPH activity (CYP2E1 [6]; physiological concentrations, ref Rasmussen et al. (2010a)): inhibit; Effect on EROD activity (CYP1A1 [7]): did not alter; Inhibition of PNPH activity (CYP2E1 [3]; 100 µM steroid, pooled microsomes from three mature entire male pigs): Inhibition of PNPH activity was observed; Inhibition of PNPH activity (CYP2E1 [3]; lower concentrations (0.02 and 1.0 µM), microsomes from mature male pigs): observed only in the presence of high concentrations
C[C@]12CC[C@H](O)C[C@@H]1CC[C@@H]1[C@@H]2CC[C@]2(C)C=CC[C@@H]12 [3β-androstenol]					inhibited only by 100 µM of 17β-estradiol	only 17β-estradiol and 17α-estradiol inhibited	Inhibition of MROD activity (CYP1A2 [1]; [11]): only 17β-estradiol and 17α-estradiol inhibited
C[C@]12CCC(=O)C[C@@H]1CC[C@@H]1[C@@H]2CC[C@]2(C)[C@@H](O)CC[C@@H]12 [DHT, dihydrotestosterone]					inhibited only by 100 µM of 17β-estradiol	only 17β-estradiol and 17α-estradiol inhibited	Magnitude of MROD inhibition (CYP1A2 [1]; steroid 0.55, 1.0 and 100.0 µM, relative to control incubations): ≤ 30%
